Laboratory results taken from ChEMBL document CHEMBL1201862, “PubChem BioAssay data set” (2004).
“And” between values parts separate entries of the source, which are not always exact repeats. Equal entries are not always repeated.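 A five-concentration, 48-hour dose response in 96-well plates underlies each endpoint, interpolated linearly between surrounding concentrations. At the GI50, growth is halved.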 The source made the active and inactive calls. No stated cut-off is given here; in the data, active = GI50 up to about 1.1 µM and inactive = higher.

Key:
Assay in all cases: NCI anticancer screen, dose series, 48 h
UACC-62 = system: UACC-62
MOLT-4 = system: MOLT-4
COLO 205 = system: COLO 205
MDA-N = system: MDA-N
HOP-62 = system: HOP-62
SR = system: SR
LOX IMVI = system: LOX IMVI
A549 = system: A549
SK-MEL-2 = system: SK-MEL-2
SF-268 = system: SF-268
PC-3 = system: PC-3
M14 = system: M14
NCI-H522 = system: NCI-H522
786-0 = system: 786-0
UACC-257 = system: UACC-257
OVCAR-3 = system: OVCAR-3
T47D = system: T47D
EKVX = system: EKVX
OVCAR-8 = system: OVCAR-8
Malme-3M = system: Malme-3M
NCI-H460 = system: NCI-H460
SK-MEL-5 = system: SK-MEL-5
SF-295 = system: SF-295
HCT-116 = system: HCT-116
SK-OV-3 = system: SK-OV-3
DU-145 = system: DU-145
Hs-578T = system: Hs-578T
SN12C = system: SN12C
MDA-MB-231 = system: MDA-MB-231
NCI/ADR-RES = system: NCI/ADR-RES
ACHN = system: ACHN
HOP-92 = system: HOP-92
SW-620 = system: SW-620
SNB-75 = system: SNB-75
HCT-15 = system: HCT-15
IGROV-1 = system: IGROV-1
HT-29 = system: HT-29
HL-60 = system: HL-60
SF-539 = system: SF-539
OVCAR-5 = system: OVCAR-5
KM12 = system: KM12
MCF7 = system: MCF7
BT-549 = system: BT-549
CCRF-CEM = system: CCRF-CEM
A498 = system: A498
RPMI-8226 = system: RPMI-8226
SK-MEL-28 = system: SK-MEL-28
NCI-H226 = system: NCI-H226
TK-10 = system: TK-10
U-251 = system: U-251
OVCAR-4 = system: OVCAR-4
CAKI-1 = system: CAKI-1
NCI-H23 = system: NCI-H23
HCC 2998 = system: HCC 2998
MDA-MB-435 = system: MDA-MB-435
UO-31 = system: UO-31
SNB-19 = system: SNB-19
K562 = system: K562
RXF 393 = system: RXF 393

Q: `CC(C)(C)[Si](C)(C)OCC1OC(n2cc(I)c(N)nc2=O)C(O[Si](C)(C)C(C)(C)C)C1O[Si](C)(C)C(C)(C)C` (centres undefined) was tested. Which GI50 (UACC-62) did it give?
A: Its GI50 is 10.3 µM (inactive).

Q: And the GI50 (MOLT-4)?
A: Its GI50 is 2.5 µM (inactive).

Q: And the GI50 (COLO 205)?
A: The GI50 was 16.1 µM (inactive).

Q: And the GI50 (MDA-N)?
A: The GI50 was 12.2 µM (inactive).

Q: And the GI50 (HOP-62)?
A: Its GI50 is 14.5 µM (inactive).

Q: What about the GI50 (SR) of the same molecule?
A: The GI50 was 5.37 µM (inactive).

Q: And the GI50 (LOX IMVI)?
A: Its GI50 is 5.43 µM (inactive).

Q: What about the GI50 (A549) of the same molecule?
A: Its GI50 is 6.58 µM (inactive).

Q: What about the GI50 (SK-MEL-2) of the same molecule?
A: Its GI50 is 5.02 µM (inactive).

Q: And the GI50 (SF-268)?
A: Its GI50 is 12.7 µM (inactive).

Q: And the GI50 (PC-3)?
A: The GI50 was 3.4 µM (inactive).

Q: What about the GI50 (M14) of the same molecule?
A: The GI50 was 5.04 µM (inactive).

Q: And the GI50 (NCI-H522)?
A: The GI50 was 3.56 µM (inactive).

Q: And the GI50 (786-0)?
A: Its GI50 is 1.99 µM (inactive).

Q: What about the GI50 (UACC-257) of the same molecule?
A: Its GI50 is 11.5 µM (inactive).

Q: And the GI50 (OVCAR-3)?
A: The GI50 was 10.5 µM (inactive).

Q: And the GI50 (T47D)?
A: Its GI50 is > 10 µM (inactive).

Q: What about the GI50 (EKVX) of the same molecule?
A: Its GI50 is 18.6 µM (inactive).

Q: And the GI50 (OVCAR-8)?
A: Its GI50 is 12.5 µM (inactive).

Q: And the GI50 (Malme-3M)?
A: The GI50 was 11.3 µM (inactive).

Q: What about the GI50 (NCI-H460) of the same molecule?
A: The GI50 was 7.19 µM (inactive).

Q: What about the GI50 (SK-MEL-5) of the same molecule?
A: Its GI50 is 10.4 µM (inactive).

Q: And the GI50 (SF-295)?
A: The GI50 was 3.16 µM (inactive).

Q: And the GI50 (HCT-116)?
A: Its GI50 is 9.42 µM (inactive).

Q: What about the GI50 (SK-OV-3) of the same molecule?
A: The GI50 was 15.5 µM (inactive).

Q: What about the GI50 (DU-145) of the same molecule?
A: Its GI50 is 13.3 µM (inactive).

Q: And the GI50 (Hs-578T)?
A: Its GI50 is 11.4 µM (inactive).

Q: What about the GI50 (SN12C) of the same molecule?
A: The GI50 was 8.28 µM (inactive).

Q: And the GI50 (MDA-MB-231)?
A: The GI50 was 13.3 µM (inactive).

Q: And the GI50 (NCI/ADR-RES)?
A: The GI50 was 34.1 µM (inactive).

Q: What about the GI50 (ACHN) of the same molecule?
A: Its GI50 is 10.2 µM (inactive).

Q: What about the GI50 (HOP-92) of the same molecule?
A: The GI50 was 19.1 µM (inactive).

Q: What about the GI50 (SW-620) of the same molecule?
A: Its GI50 is 4.58 µM (inactive).

Q: And the GI50 (SNB-75)?
A: The GI50 was 14.3 µM (inactive).

Q: And the GI50 (HCT-15)?
A: Its GI50 is 18.6 µM.

Q: What about the GI50 (IGROV-1) of the same molecule?
A: Its GI50 is 5.73 µM (inactive).

Q: What about the GI50 (HT-29) of the same molecule?
A: The GI50 was 5.26 µM (inactive).

Q: `NC(CN(O)N=O)C(=O)O` (centres undefined) [LALANOSINE] was tested. Which GI50 (MOLT-4) did it give?
A: The GI50 was 40 µM (inactive) and 29.2 µM (inactive).

Q: What about the GI50 (HL-60) of the same molecule?
A: The GI50 was 11.4 µM (inactive).

Q: What about the GI50 (SF-539) of the same molecule?
A: Its GI50 is 8.63 µM (inactive).

Q: And the GI50 (LOX IMVI)?
A: The GI50 was 412 nM (active) and 333 nM (active).

Q: What about the GI50 (A549) of the same molecule?
A: The GI50 was 268 nM (active) and 204 nM (active).

Q: And the GI50 (SK-MEL-2)?
A: Its GI50 is > 100 µM (inactive) and 70 µM (inactive).

Q: And the GI50 (OVCAR-5)?
A: Its GI50 is 3.73 µM (inactive) and 4.13 µM (inactive).

Q: What about the GI50 (T47D) of the same molecule?
A: Its GI50 is 87.9 µM (inactive).

Q: What about the GI50 (OVCAR-8) of the same molecule?
A: The GI50 was 12.5 µM (inactive) and 23.8 µM (inactive).

Q: And the GI50 (SF-295)?
A: The GI50 was 8.36 µM (inactive) and 8.63 µM (inactive).

Q: What about the GI50 (KM12) of the same molecule?
A: The GI50 was 304 nM (active) and 360 nM (active).

Q: What about the GI50 (DU-145) of the same molecule?
A: The GI50 was > 100 µM (inactive).

Q: What about the GI50 (MDA-MB-231) of the same molecule?
A: The GI50 was 87.9 µM (inactive).

Q: And the GI50 (NCI/ADR-RES)?
A: The GI50 was 18.7 µM (inactive).

Q: And the GI50 (ACHN)?
A: Its GI50 is 1.42 µM (inactive) and 1.82 µM (inactive).

Q: What about the GI50 (HT-29) of the same molecule?
A: The GI50 was 10.1 µM (inactive) and 17.7 µM (inactive).

Q: How did the GI50 (HL-60) turn out when `CC(C)(C)C1CCC2c3c([nH]c4ccccc34)C3C(=O)N(c4ccc(Cl)cc4)C(=O)C3C2C1` (centres undefined) was run?
A: Its GI50 is > 10 µM (inactive) and 17.7 µM (inactive).

Q: And the GI50 (SR)?
A: Its GI50 is > 10 µM (inactive) and 18 µM (inactive).

Q: And the GI50 (LOX IMVI)?
A: The GI50 was 0.012 µM (active).

Q: And the GI50 (SK-MEL-2)?
A: The GI50 was > 10 µM (inactive).

Q: What about the GI50 (OVCAR-5) of the same molecule?
A: Its GI50 is 20.9 nM (active).

Q: What about the GI50 (Malme-3M) of the same molecule?
A: The GI50 was > 10 µM (inactive).

Q: What about the GI50 (MCF7) of the same molecule?
A: The GI50 was 31.3 µM (inactive).

Q: What about the GI50 (BT-549) of the same molecule?
A: The GI50 was > 100 µM (inactive).

Q: What about the GI50 (CCRF-CEM) of the same molecule?
A: The GI50 was > 10 µM (inactive) and 19.5 µM (inactive).

Q: And the GI50 (A498)?
A: Its GI50 is > 10 µM (inactive).

Q: What does the source list for `O=C1/C(=C\c2c(-c3ccccc3)[nH]n(-c3ccccc3)c2=O)C(c2ccccc2)=NN1c1ccccc1`?
A: GI50 (UACC-62): > 100 µM (inactive); GI50 (RPMI-8226): > 100 µM (inactive); GI50 (MOLT-4): > 100 µM (inactive); GI50 (HL-60): > 100 µM (inactive); GI50 (SK-MEL-28): > 100 µM (inactive); GI50 (COLO 205): > 100 µM (inactive); GI50 (MDA-N): > 100 µM (inactive); GI50 (NCI-H226): > 100 µM (inactive); GI50 (SF-539): > 100 µM (inactive); GI50 (TK-10): > 100 µM (inactive); GI50 (HOP-62): > 100 µM (inactive); GI50 (SR): 20 µM (inactive); GI50 (LOX IMVI): > 100 µM (inactive); GI50 (A549): > 100 µM (inactive); GI50 (SK-MEL-2): > 100 µM (inactive); GI50 (SF-268): > 100 µM (inactive); GI50 (PC-3): > 100 µM (inactive); GI50 (U-251): > 100 µM (inactive); GI50 (M14): > 100 µM (inactive); GI50 (OVCAR-5): > 100000 nM (inactive); GI50 (OVCAR-4): > 100 µM (inactive); GI50 (786-0): > 100 µM (inactive); GI50 (UACC-257): > 100 µM (inactive); GI50 (OVCAR-3): > 100 µM (inactive); GI50 (T47D): > 100 µM (inactive); GI50 (CAKI-1): > 100 µM (inactive); GI50 (EKVX): > 100 µM (inactive); GI50 (NCI-H23): > 100 µM (inactive); GI50 (OVCAR-8): > 100 µM (inactive); GI50 (Malme-3M): > 100 µM (inactive); GI50 (HCC 2998): > 100 µM (inactive); GI50 (NCI-H460): > 100 µM (inactive); GI50 (MDA-MB-435): > 100 µM (inactive); GI50 (MCF7): > 100 µM (inactive); GI50 (SF-295): > 100 µM (inactive); GI50 (HCT-116): > 100 µM (inactive); GI50 (SK-OV-3): > 100 µM (inactive); GI50 (UO-31): > 100 µM (inactive); GI50 (KM12): > 100 µM (inactive); GI50 (DU-145): > 100 µM (inactive); GI50 (Hs-578T): > 100 µM (inactive); GI50 (SN12C): > 100 µM (inactive); GI50 (MDA-MB-231): > 100 µM (inactive); GI50 (NCI/ADR-RES): > 100 µM (inactive); GI50 (ACHN): > 100 µM (inactive); GI50 (SNB-19): > 100 µM (inactive); GI50 (HOP-92): 81.3 µM (inactive); GI50 (K562): 87.5 µM (inactive); GI50 (RXF 393): > 100 µM (inactive); GI50 (SW-620): > 100 µM (inactive); GI50 (SNB-75): > 100 µM (inactive); GI50 (CCRF-CEM): 79.4 µM (inactive); GI50 (HCT-15): > 100 µM; GI50 (IGROV-1): > 100 µM (inactive); GI50 (HT-29): > 100 µM (inactive); GI50 (A498): > 100 µM (inactive)
